Measured values taken from US9458428B2, “Methods and compositions for the rapid production of retinal pigmented epithelial cells from pluripotent cells” (The Regents of the University of California, priority 2012, dated 2016).
Ends that are not written are not given here.

B1: Activin A: Recombinant Activin A, media additive (protein, UniProt P08476 311-426, looked up)
Inhibin beta A chain: GLECDGKVNICCKKQFFVSFKDIGWNDWIIAPSGYHANYCEGECPSHIAGTSGSSLSFHSTVINHYRMRGHSPFANLKSCCVPTKLRPMSMLYYDDGQNIIKKDIQNMIVEECGCS

Experiments:
pluripotent stem cells [1] = assay: qPCR gene expression, early eye field differentiation, day 4; type: cell-based, human; conditions: for expression of early neural/early eye field marker Lhx2 / expression of early neural/early eye field marker Rax / expression of the pluripotency genes Oct4 and Nanog: day 4, added to IGF1, Noggin, Dkk1 and bFGF, compared with controls; for expression of the pluripotency genes Oct4 and Nanog: 10 mM nicotinamide or 5 mM 3-aminobenzamide
Experimental: (§1) Pluripotent stem cells were passaged directly onto Matrigel (BD Biosciences) in DMEM/F12 with 1×B27, 1×N2, and 1×NEAA (Invitrogen). From days 0 to 2, 50 ng/ml Noggin, 10 ng/ml Dkk1, and 10 ng/ml IGF1 (R&D Systems Inc., Minneapolis, Minn., http://www.rndsystems.com) and in some experiments 10 mM nicotinamide or 5 mM 3-aminobenzamide (Sigma-Aldrich) were added to the base medium. From days 2 to 4, 10 ng/ml Noggin, 10 ng/ml Dkk1, 10 ng/ml IGF1, and 5 ng/ml bFGF and in some experiments 10 mM nicotinamide or 5 mM 3-aminobenzamide were added to the base medium. From days 4 to 6, 10 ng/ml Dkk1 and 10 ng/ml IGF1 and in some experiments 100 ng/ml Activin A (R&D Systems) were added to the base medium. From days 6 to 14, 100 ng/ml Activin A, 10 μM SU5402 (EMD Millipore, Darmstadt, Germany, http://www.emdmillipore.com), and […] VIP (Sigma-Aldrich) were added to the base medium. Control experiments were also performed in base media alone (DMEM/F12, B27, N2, and NEAA).
(§2) Quantitative Real-Time Polymerase Chain Reaction Total RNA of RPE marker genes was isolated using primers based upon the mRNA sequences of such genes. QPCR methods were carried out with the RNeasy Plus Mini Kit (Qiagen, Hilden, Germany, http://www.qiagen.com). cDNA was synthesized from 1 μg of RNA using the iScript cDNA Synthesis Kit (Bio-Rad, Hercules, Calif., http://www.bio-rad.com). Primer pairs were designed to create a 75-200-base pair product (Beacon Design 4.0; Premier Biosoft International, Palo Alto, Calif., http://www.premierbiosoft.com). Quantitative real-time polymerase chain reaction (PCR) was carried out on a Bio-Rad MyIQ Single Color Real-Time PCR Detection System using the SYBR Green method, as described in Woo T H, Patel B K, Cinco M et al. Identification of Leptospira biflexa by real-time homogeneous detection of rapid cycle PCR product. J Microbiol Methods 1999; 35:23-30. Triplicate 20-μl reactions were run in a 96-well plate with half of the cDNA synthesis reaction used per plate. Primer specificity was confirmed by melting temperature analysis, gel electrophoresis, and direct sequencing (Iowa State DNA Facility, Ames, Iowa). The data were normalized to the geometric mean of the “housekeeping” genes: glyceraldehyde phosphate dehydrogenase (GAPDH), hydroxymethylbilane synthase (HMBS), and glucose phosphate isomerase (GPI), as described in Radeke M J, Peterson K E, Johnson L V et al. Disease susceptibility of the human macula: Differential gene transcription in the retinal pigmented epithelium/choroid. Exp Eye Res 2007; 85:366-380.

early eye field cells [2] = assay: qPCR gene expression, RPE specification of early eye field cells, day 10; type: cell-based, human; conditions: for gene expression of Mitf / expression of Rax: day 10; for gene expression of Mitf: Activin A added days 4-10, SU5402 or VIP days 6-10
Experimental: as §1, §2

PKC = conditions: cited from earlier work
dissociated RPE = assay: Rescue of RPE after single-cell dissociation on day 14; type: cell-based, human; conditions: 10 μM for the first 3 days after passage
Experimental: The cells were mechanically enriched by scraping away cells with non-RPE morphology. Subsequently, the remaining RPE were digested using TrypLE Express (Invitrogen) for ˜5 minutes at 37° C. The cells were passed through a 30-μm single-cell strainer and seeded onto Matrigel-coated tissue culture plastic, Transwell membranes (Corning Enterprises, Corning, N.Y., http://www.corning.com), or CC2-treated chambered slides. Enriched cells were cultured in DMEM-high glucose with 1% fetal bovine serum (FBS), GlutaMAX, and sodium pyruvate (Invitrogen) for 30 days, as described in Ahmado A, Carr A J, Vugler A A et al. Induction of differentiation by pyruvate and DMEM in the human retinal pigment epithelium cell line ARPE-19. Invest Ophthalmol Vis Sci 2011; 52:7148-7159.
Differentiated Cells Can Be Enriched on Day 14 to Homogenous Cultures of Functional RPE. To generate more homogenous populations of RPE, readily visible sheets on day 14 were mechanically isolated, dissociated into single cells, and replated in an RPE medium described in Buchholz D E, Hikita S T, Rowland T J et al. Derivation of functional retinal pigmented epithelium from induced pluripotent stem cells. STEM CELLS 2009; 27:2427-2434, on Matrigel-coated tissue culture plastic, chambered slides, or Transwell inserts. […]

[3] = target: myosin light-chain kinase; conditions: cited from earlier work
[4] = target: cAMP-dependent protein kinase; conditions: cited from earlier work
pluripotent stem cells [5] = assay: Cell morphology during early eye field differentiation; type: cell-based, human; conditions: compared with control cells
Experimental: as §1

early eye field cells [6] = assay: Pigmentation of differentiating cultures; type: cell-based, human; conditions: cultures containing VIP, between days 10 and 14
Experimental: as §1

[7] = Activin A added days 4-10, SU5402 days 6-10

Molecule | expression of early neural/early eye field marker Lhx2 (pluripotent stem cells [1]) | expression of early neural/early eye field marker Rax (pluripotent stem cells [1]) | expression of the pluripotency genes Oct4 and Nanog (pluripotent stem cells [1]) | gene expression of Mitf (early eye field cells [2]) | expression of Rax (early eye field cells [2]; [7]) | further results
NC(=O)c1cccc(N)c1 [3-aminobenzamide] | significantly increased | significantly increased | reduced |  |  | ability to recapitulate the effects of nicotinamide (pluripotent stem cells [1]; day 4, overall): partially recapitulate the effects of nicotinamide
Cc1c[nH]c(/C=C2\C(=O)Nc3ccccc32)c1CCC(=O)O [SU5402] |  |  |  | little effect | little effect | expression of Rax (early eye field cells [2]; SU5402 in combination with Activin A): further decreased
C[C@@H](N)[C@H]1CC[C@H](C(=O)Nc2ccncc2)CC1 [Y-27632] |  |  |  |  |  | Ki (PKC): […]; RPE survival and maturation after single-cell dissociation (dissociated RPE): […]; Ki [3]: > 250 µM; Ki [4]: 25 µM
NC(=O)c1cccnc1 [nicotinamide] | increased | the increase in Rax was not significant | significantly decreased |  |  | Pax6(−5a) expression (pluripotent stem cells [1]; day 4, nicotinamide against control conditions): similar; cell morphology (pluripotent stem cells [5]): rapidly adopted a radial/rosette morphology
VIP: vasoactive intestinal peptide, a cyclic AMP upregulator (HSDAVFTDNYTRLRKQMAVKKYLNSILN; ends and bridges not checked; UniProt P01282 125-152, looked up) |  |  |  | significantly increased |  | expression of RPE marker gene PEDF (early eye field cells [2]; VIP added days 6-10): significantly increased; expression of RPE marker gene tyrosinase (early eye field cells [2]; VIP added days 6-10): significantly increased; pigmentation (early eye field cells [6]): increased
B1 |  |  |  | little effect | significantly decreased | 
